Source: US20250059188A1, “ARYLSULPHONAMIDE COMPOUNDS” (Anaxis Pharma Pty Ltd, priority 2021, published 2025)

How the values were obtained:
human MLKL (full length) = human MLKL (full length) (Homo sapiens (Human), UniProt Q8NB16); test: KINOMEscan binding assay, human MLKL (full length); settings: equilibrium dissociation constant
How it was run: (§1)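 Kd values come from dose-response fits to the Hill equation (Hill slope −1, Levenberg–Marquardt least squares). Compound competed with bead-bound ligand for tagged kinase, and remaining kinase was measured by qPCR after elution. Dilution series: 11 points, 3-fold, 1% DMSO final, top 30,000 nM in most runs.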

human RIPK1 = human RIPK1 (Homo sapiens (Human), UniProt Q13546); test: KINOMEscan binding assay, human RIPK1; settings: equilibrium dissociation constant
How it was run: as §1

[1] = test system: U937 human histiocytic leukemia cell line; test: Inhibition of TSQ induced necroptosis in U937 cells (CellTitre-Glo); settings: Homo sapiens, U-937, TSQ cocktail (TNF, Smac mimetic, Q-VD-OPh), 48 hours, read-out: Inhibition of TSQ-induced necroptosis (IC50 cell-based assay)
How it was run: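 U937 cells (20000/well) treated with compound (10-point, 1:3 from 36 μM, 0.3% DMSO) plus TSQ cocktail (hTNF-Fc 100 ng/ml, Smac mimetic 500 nM, Q-VD-OPh 10 μM), 48 h at 37 °C. Viability by CellTiter-Glo luminescence; IC50 from 4-parameter logistic fit. Counter screen: same cells without TSQ.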

human RIPK3 = human RIPK3 (Homo sapiens (Human), UniProt Q9Y572); test: KINOMEscan binding assay, human RIPK3; settings: equilibrium dissociation constant
How it was run: as §1

mouse MLKL (full length) = mouse MLKL (full length) (Mus musculus (Mouse), UniProt Q9D2Y4); test: KINOMEscan binding assay, mouse MLKL (full length); settings: equilibrium dissociation constant
Experimental: Binding affinity of the test compounds for human MLKL (full length), mouse MLKL (full length), human RIPK1 and human RIPK3 was determined using the KINOMEscan™ technology developed by DiscoverX (USA; http://www.discoverx.com). The assay was conducted according to manufacturer instructions.
Kinase assays. For most assays, kinase-tagged T7 phage strains were grown in parallel in 24-well blocks in an E. coli host derived from the BL21 strain. E. coli were grown to log-phase and infected with T7 phage from a frozen stock (multiplicity of infection=0.4) and incubated with shaking at 32° C. until lysis (90-150 minutes). The lysates were centrifuged (6,000×g) and filtered (0.2 μm) to remove cell debris. The remaining kinases were produced in HEK-293 cells and subsequently tagged with DNA for qPCR detection. […] The liganded beads were blocked with excess biotin and washed with blocking buffer (SeaBlock (Pierce), 1% BSA, 0.05% Tween 20, 1 mM DTT) to remove unbound ligand and to reduce non-specific phage binding. […] All reactions were performed in polypropylene 384-well plates in a final volume of 20 μL. […] The kinase concentration in the eluates was measured by qPCR.
An 11-point 3-fold serial dilution of each test compound was prepared in 100% DMSO at 100× final test concentration and subsequently diluted to 1× in the assay (final DMSO concentration=1%). Most Kos were determined using a compound top concentration=30,000 nM.
KD for each test compound was calculated with a standard dose-response curve using the Hill equation (equation (1)): […]
The Hill Slope was set to −1.
Curves were fitted using a non-linear least square fit with the Levenberg-Marquardt algorithm.

U937 cells = test: Counter screen: U937 cell viability without TSQ cocktail (off-target effect); set-up: species or system human; settings: Homo sapiens, U-937, compound without TSQ cocktail, read-out: Off-target effect (IC50 cell-based assay)
How it was run: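 U937 cells (20,000/well) exposed to compound (10-point 1:3 titration from 36 μM, 0.3% DMSO) without TSQ cocktail for 48 h at 37 °C/5% CO2. Viability read as ATP by CellTiter-Glo luminescence; IC50 from 4-parameter logistic fit.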

Chain of human RIPK3 (Q9Y572 whole entry): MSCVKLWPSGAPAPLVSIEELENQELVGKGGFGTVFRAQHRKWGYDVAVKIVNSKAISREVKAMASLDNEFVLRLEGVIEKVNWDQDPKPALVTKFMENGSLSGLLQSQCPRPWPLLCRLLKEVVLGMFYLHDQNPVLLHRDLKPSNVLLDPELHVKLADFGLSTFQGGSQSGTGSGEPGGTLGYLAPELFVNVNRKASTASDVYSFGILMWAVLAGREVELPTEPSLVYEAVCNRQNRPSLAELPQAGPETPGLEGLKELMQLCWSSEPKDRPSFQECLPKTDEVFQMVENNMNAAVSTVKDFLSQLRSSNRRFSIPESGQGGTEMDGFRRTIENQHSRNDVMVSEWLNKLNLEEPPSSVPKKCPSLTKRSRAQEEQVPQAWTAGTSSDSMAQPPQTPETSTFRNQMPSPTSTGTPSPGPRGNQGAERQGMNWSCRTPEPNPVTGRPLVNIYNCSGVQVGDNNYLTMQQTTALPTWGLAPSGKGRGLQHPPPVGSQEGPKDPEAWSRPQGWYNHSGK
Chain of human RIPK1 (Q13546 whole entry): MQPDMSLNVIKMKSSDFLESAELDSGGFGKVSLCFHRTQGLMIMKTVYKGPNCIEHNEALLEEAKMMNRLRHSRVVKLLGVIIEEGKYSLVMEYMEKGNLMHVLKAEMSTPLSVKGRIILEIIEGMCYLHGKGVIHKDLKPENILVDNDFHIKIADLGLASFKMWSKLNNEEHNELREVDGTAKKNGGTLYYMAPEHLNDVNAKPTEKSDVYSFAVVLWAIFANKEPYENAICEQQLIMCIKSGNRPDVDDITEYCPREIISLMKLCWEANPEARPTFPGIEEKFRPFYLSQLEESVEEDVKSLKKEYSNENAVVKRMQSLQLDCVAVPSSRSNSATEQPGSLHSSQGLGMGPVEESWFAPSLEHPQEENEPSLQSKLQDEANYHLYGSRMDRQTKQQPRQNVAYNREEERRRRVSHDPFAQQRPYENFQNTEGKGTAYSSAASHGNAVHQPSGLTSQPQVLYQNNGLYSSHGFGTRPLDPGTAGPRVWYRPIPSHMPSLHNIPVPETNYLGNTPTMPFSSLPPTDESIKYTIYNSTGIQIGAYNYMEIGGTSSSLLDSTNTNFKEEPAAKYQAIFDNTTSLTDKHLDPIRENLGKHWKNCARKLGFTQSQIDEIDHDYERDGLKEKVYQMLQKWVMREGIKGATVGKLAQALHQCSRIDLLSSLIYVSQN
Chain of mouse MLKL (full length) (Q9D2Y4 whole entry): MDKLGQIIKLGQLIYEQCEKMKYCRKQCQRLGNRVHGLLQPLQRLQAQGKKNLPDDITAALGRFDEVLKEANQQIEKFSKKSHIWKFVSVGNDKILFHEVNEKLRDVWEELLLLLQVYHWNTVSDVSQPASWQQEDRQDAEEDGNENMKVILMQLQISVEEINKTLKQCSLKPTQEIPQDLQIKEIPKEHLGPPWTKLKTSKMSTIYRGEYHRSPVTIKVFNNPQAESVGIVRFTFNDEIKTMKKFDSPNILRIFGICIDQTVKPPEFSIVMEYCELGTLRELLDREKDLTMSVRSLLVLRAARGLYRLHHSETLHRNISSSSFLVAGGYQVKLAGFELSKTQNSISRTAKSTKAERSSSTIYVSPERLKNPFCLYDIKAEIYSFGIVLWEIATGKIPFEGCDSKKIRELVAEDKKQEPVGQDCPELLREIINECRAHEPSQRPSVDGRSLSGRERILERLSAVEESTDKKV
Chain of human MLKL (full length) (Q8NB16 whole entry): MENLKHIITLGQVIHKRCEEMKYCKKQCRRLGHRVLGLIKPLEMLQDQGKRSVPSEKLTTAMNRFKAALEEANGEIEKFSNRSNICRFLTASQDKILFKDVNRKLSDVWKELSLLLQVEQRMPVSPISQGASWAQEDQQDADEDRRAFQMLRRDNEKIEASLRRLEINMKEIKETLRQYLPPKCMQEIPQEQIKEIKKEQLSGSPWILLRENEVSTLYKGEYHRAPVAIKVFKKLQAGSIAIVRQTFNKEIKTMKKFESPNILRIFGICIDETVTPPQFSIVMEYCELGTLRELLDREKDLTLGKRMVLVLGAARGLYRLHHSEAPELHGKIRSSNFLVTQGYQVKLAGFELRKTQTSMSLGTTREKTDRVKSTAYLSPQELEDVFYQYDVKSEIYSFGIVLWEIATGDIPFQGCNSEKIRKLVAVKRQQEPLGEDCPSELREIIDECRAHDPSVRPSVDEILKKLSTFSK

SMILES	Kd (human MLKL (full length)) [nM]	Kd (human RIPK1) [nM]	Kd (human RIPK3) [nM]	Kd (mouse MLKL (full length)) [nM]	IC50 [1] [nM]	IC50 (U937 cells) [nM]
C[C@H](Oc1cc(-c2coc3c(-c4cnn(C5CCOCC5)c4)cnc(N)c23)ccc1NS(=O)(=O)C(F)F)c1ccc(F)cc1 [Compound 7, (S)-N-(4-(4-amino-7-(1-(tetrahydro-2H-pyran-4-yl)-1H-pyrazol-4-yl)furo[3,2-c]pyridin-3-yl)-2-(1-(4-fluorophenyl)ethoxy)phenyl)-1,1-difluoromethanesulfonamide]	1 to 100	> 10000	> 10000	< 1	10 to 1000	1000 to 10000
C[C@H](Oc1cc(-c2coc3c(-c4cnn(CCO)c4)cnc(N)c23)ccc1NS(=O)(=O)C(F)F)c1ccc(F)cc1 [Compound 9, (S)-N-(4-(4-amino-7-(1-(2-hydroxyethyl)-1H-pyrazol-4-yl)furo[3,2-c]pyridin-3-yl)-2-(1-(4-fluorophenyl)ethoxy)phenyl)-1,1-difluoromethanesulfonamide]	< 1	> 10000	> 10000	1 to 100	10 to 1000	1000 to 10000
C[C@H](Oc1cc(-c2nn(C)c3c(-c4ccncc4)cnc(N)c23)ccc1NS(=O)(=O)C(F)F)c1ccc(F)cc1 [Compound 18, (S)-N-(4-(4-amino-1-methyl-7-(pyridin-4-yl)-1H-pyrazolo[4,3-c]pyridin-3-yl)-2-(1-(4-fluorophenyl)ethoxy)phenyl)-1,1-difluoromethanesulfonamide]	< 1	> 10000	> 10000	1 to 100	10 to 1000	> 10000
C[C@H](Oc1cc(-c2nn(C)c3c(-c4cnn(C)c4)cnc(N)c23)ccc1NS(=O)(=O)C(F)F)c1ccc(F)cc1 [Compound 20, (S)-N-(4-(4-amino-1-methyl-7-(1-methyl-1H-pyrazol-4-yl)-1H-pyrazolo[4,3-c]pyridin-3-yl)-2-(1-(4-fluorophenyl)ethoxy)phenyl)-1,1-difluoromethanesulfonamide]	< 1	> 10000	> 10000	< 1	10 to 1000	> 10000
Nc1n[nH]c2ncnc(-c3ccc(NS(=O)(=O)C(F)F)c(OCc4ccc(F)cc4)c3)c12 [Compound 69, N-(4-(3-Amino-1H-pyrazolo[3,4-d]pyrimidin-4-yl)-2-((4-fluorophenyl)methoxy)phenyl)-1,1-difluoromethanesulfonamide]	< 1	> 10000	> 10000	1 to 100		
Cc1cc(-c2ccc(NS(=O)(=O)C(F)F)c(OCc3ccc(F)cc3)c2)c2c(N)n[nH]c2n1 [Compound 70, N-(4-(3-Amino-6-methyl-1H-pyrazolo[3,4-b]pyridin-4-yl)-2-((4-fluorophenyl)methoxy)phenyl)-1,1-difluoromethanesulfonamide]	< 1	> 10000	> 10000	1 to 100		

Further lines, with some results ahead:

Kd (human MLKL (full length)) [nM]	Kd (human RIPK1) [nM]	Kd (human RIPK3) [nM]	Kd (mouse MLKL (full length)) [nM]	SMILES	IC50 [1] [nM]	IC50 (U937 cells) [nM]
< 1	> 10000	> 10000	< 1	C[C@H](Oc1cc(-c2coc3c(-c4cnn(C)c4)cnc(N)c23)ccc1NS(=O)(=O)C(F)F)c1ccc(F)cc1 [Compound 8, (S)-N-(4-(4-amino-7-(1-methyl-1H-pyrazol-4-yl)furo[3,2-c]pyridin-3-yl)-2-(1-(4-fluorophenyl)ethoxy)phenyl)-1,1-difluoromethanesulfonamide]		
< 1	> 10000	> 10000	< 1	C[C@H](Oc1cc(-c2nn(C)c3c(-c4cnn(CCO)c4)cnc(N)c23)ccc1NS(=O)(=O)C(F)F)c1ccc(F)cc1 [Compound 15, (S)-N-(4-(4-amino-7-(1-(2-hydroxyethyl)-1H-pyrazol-4-yl)-1-methyl-1H-pyrazolo[4,3-c]pyridin-3-yl)-2-(1-(4-fluorophenyl)ethoxy)phenyl)-1,1-difluoromethanesulfonamide]	10 to 1000	> 10000
1 to 100	> 10000	> 10000	< 1	C[C@H](Oc1cc(-c2nn(C)c3c(-c4cnn(CCN5CCN(C)CC5)c4)cnc(N)c23)ccc1NS(=O)(=O)C(F)F)c1ccc(F)cc1 [Compound 60, (S)-N-(4-(4-amino-1-methyl-7-(1-(2-(4-methylpiperazin-1-yl)ethyl)-1H-pyrazol-4-yl)-1H-pyrazolo[4,3-c]pyridin-3-yl)-2-(1-(4-fluorophenyl)ethoxy)phenyl)-1,1-difluoromethanesulfonamide]	10 to 1000	> 10000
1 to 100	> 10000	> 10000	1 to 100	C[C@H](Oc1cc(-c2nn(C)c3c(-c4cnn(C5CCN(CC(F)(F)F)CC5)c4)cnc(N)c23)ccc1NS(=O)(=O)C(F)F)c1ccc(F)cc1 [Compound 61, (S)-N-(4-(4-amino-1-methyl-7-(1-(1-(2,2,2-trifluoroethyl)piperidin-4-yl)-1H-pyrazol-4-yl)-1H-pyrazolo[4,3-c]pyridin-3-yl)-2-(1-(4-fluorophenyl)ethoxy)phenyl)-1,1-difluoromethanesulfonamide]	10 to 1000	> 10000
< 1	> 10000	> 10000	1 to 100	Nc1n[nH]c2nccc(-c3ccc(NS(=O)(=O)C(F)F)c(OCc4ccc(F)cc4)c3)c12 [Compound 66, N-(4-(3-Amino-1H-pyrazolo[3,4-b]pyridin-4-yl)-2-((4-fluorophenyl)methoxy)phenyl)-1,1-difluoromethanesulfonamide]		
< 1	> 10000	> 10000	1 to 100	C[C@H](Oc1cc(-c2ccnc3[nH]nc(N)c23)ccc1NS(=O)(=O)C(F)F)c1ccc(F)cc1 [Compound 72, N-(4-(3-Amino-1H-pyrazolo[3,4-b]pyridin-4-yl)-2-((1S)-1-(4-fluorophenyl)ethoxy)phenyl)-1,1-difluoromethanesulfonamide]	10 to 1000	> 10000
